Measured values published in patent US10669289B2, “Boronic acid derivatives” (MERCK PATENT GMBH, priority 2014, dated 2020).

Experiments:
[1] = biological target: human immuno proteasome (LMP7) (Homo sapiens (Human), UniProt P28062); assay: Determination of LMP7 activity (fluorescence intensity assay, Suc-LLVY-AMC); type: biochemical; details: for Selectivity LMP7 vs Beta5: LMP7 versus Beta5, incubation for 20 minutes; for IC50: incubation for 20 minutes
Procedure: Determination of LMP7 Activity:
Measurement of LMP7 inhibition is performed in 384 well format based on fluorescence intensity assay.
(§1) Purified human immuno proteasome (0.25 nM) and serial diluted compounds in DMSO (range of concentrations from 30 μM to 15 pM) or controls are incubated for 20 minutes or 120 minutes (long incubation) at 25° C. in assay buffer containing 50 mM Tris pH 7.4, 0.03% SDS, 1 mM EDTA and 1% DMSO. The reaction is initiated by the addition of the fluorogenic peptide substrate, Suc-LLVY-AMC (Bachem 1-1395), at a concentration of 40 μM. After 60 minutes of incubation at 37° C., fluorescence intensity is measured at λex=350 nm and λem=450 nm with a fluorescence reader (Perkin Elmer Envision reader or equivalent).
(§2) Unless indicated otherwise the results are obtained after incubation for 20 minutes.

[2] = biological target: human constitutive proteasome (Beta5) (Homo sapiens (Human), UniProt P28074); assay: Determination of Beta5 activity (fluorescence intensity assay, Suc-LLVY-AMC); type: biochemical; details: incubation for 20 minutes
Procedure: Determination of Beta5 Activity:
Measurement of Beta5 inhibition is performed in 384 well format based on fluorescence intensity assay.
as §1, with “constitutive” for “immuno”, “(1.25” for “(0.25”
as §2

C=CC(=O)N(CC(=O)N[C@@H](Cc1ccc(C)cc1C)B(O)O)c1ccccc1F [Compound No. 1, [(1R)-2-(2,4-dimethylphenyl)-1-[[2-(2-fluoro-N-prop-2-enoyl-anilino)acetyl]amino]ethyl]boronic Acid]
Selectivity LMP7 vs Beta5 [1]: +++++ (Selectivity ≥ 150)
IC50 [1]: < 50 nM
IC50 [2]: > 5000 nM

C=CC(=O)N(CC(=O)N[C@@H](Cc1ccc(C)cc1C)B(O)O)c1ccc(F)cc1 [Compound No. 2, [(1R)-2-(2,4-dimethylphenyl)-1-[[2-(4-fluoro-N-prop-2-enoyl-anilino)acetyl]amino]ethyl]boronic Acid]
Selectivity LMP7 vs Beta5 [1]: ++++ (100 ≤ Selectivity < 150)
IC50 [1]: < 50 nM
IC50 [2]: 500 to 5000 nM

C=CC(=O)N(CC(=O)N[C@@H](Cc1ccc(C)cc1C)B(O)O)c1cccc(F)c1 [Compound No. 4, [(1R)-2-(2,4-dimethylphenyl)-1-[[2-(3-fluoro-N-prop-2-enoyl-anilino)acetyl]amino]ethyl]boronic Acid]
Selectivity LMP7 vs Beta5 [1]: +++++ (Selectivity ≥ 150)
IC50 [1]: < 50 nM
IC50 [2]: 500 to 5000 nM

C=CC(=O)N(CCC)CC(=O)N[C@@H](Cc1ccc(C)c(C)c1)B(O)O [Compound No. 5, [(1R)-2-(3,4-dimethylphenyl)-1-[[2-[prop-2-enoyl(propyl)amino]-acetyl]amino]ethyl]boronic Acid]
Selectivity LMP7 vs Beta5 [1]: ++++ (100 ≤ Selectivity < 150)
IC50 [1]: 50 to 500 nM
IC50 [2]: > 5000 nM

C=CC(=O)N(CCC)CC(=O)N[C@@H](Cc1ccc(C)cc1C)B(O)O [Compound No. 6, [(1R)-2-(2,4-dimethylphenyl)-1-[[2-[prop-2-enoyl(propyl)amino]-acetyl]amino]ethyl]boronic Acid]
Selectivity LMP7 vs Beta5 [1]: +++++ (Selectivity ≥ 150)
IC50 [1]: 50 to 500 nM
IC50 [2]: > 5000 nM

C#CC(=O)N(CC(=O)N[C@@H](Cc1ccc(C)cc1C)B(O)O)c1ccccc1 [Compound No. 7, [(1R)-2-(2,4-dimethylphenyl)-1-[[2-(N-prop-2-ynoylanilino)acetyl]-amino]ethyl]boronic Acid]
Selectivity LMP7 vs Beta5 [1]: ++++ (100 ≤ Selectivity < 150)
IC50 [1]: < 50 nM
IC50 [2]: 500 to 5000 nM

C=CC(=O)N1c2ccccc2CC1C(=O)N[C@@H](Cc1ccc(C)cc1C)B(O)O (stereo partly drawn) [Compound No. 8, [(1R)-2-(2,4-dimethylphenyl)-1-[(1-prop-2-enoylindoline-2-carbonyl)amino]ethyl]boronic Acid]
Selectivity LMP7 vs Beta5 [1]: +++ (70 ≤ 100)
IC50 [1]: < 50 nM
IC50 [2]: 500 to 5000 nM

C=CC(=O)N(CC(=O)N[C@@H](Cc1ccc(C)cc1C)B(O)O)c1ccc(OC(F)(F)F)cc1 [Compound No. 9, [(1R)-2-(2,4-dimethylphenyl)-1-[[2-[N-prop-2-enoyl-4-(trifluoromethoxy)anilino]acetyl]amino]ethyl]boronic Acid]
Selectivity LMP7 vs Beta5 [1]: +++ (70 ≤ 100)
IC50 [1]: < 50 nM
IC50 [2]: 500 to 5000 nM

C=CS(=O)(=O)N(C)CC(=O)N[C@@H](Cc1ccc(C)c(C)c1)B(O)O [Compound No. 10, [(1R)-2-(3,4-dimethylphenyl)-1-[[2-[methyl(vinylsulfonyl)amino]-acetyl]amino]ethyl]boronic Acid]
Selectivity LMP7 vs Beta5 [1]: +++++ (Selectivity ≥ 150)
IC50 [1]: < 50 nM
IC50 [2]: 500 to 5000 nM

C#CC(=O)N(C)CC(=O)N[C@@H](Cc1ccc(C)cc1C)B(O)O [Compound No. 11, [(1R)-2-(2,4-dimethylphenyl)-1-[[2-[methyl(prop-2-ynoyl)amino]-acetyl]amino]ethyl]boronic Acid]
Selectivity LMP7 vs Beta5 [1]: +++ (70 ≤ 100)
IC50 [1]: < 50 nM
IC50 [2]: 500 to 5000 nM

C#CC(=O)N(CC)CC(=O)N[C@@H](Cc1ccc(C)cc1C)B(O)O [Compound No. 12, [(1R)-2-(2,4-dimethylphenyl)-1-[[2-[ethyl(prop-2-ynoyl)amino]acetyl]-amino]ethyl]boronic Acid]
Selectivity LMP7 vs Beta5 [1]: ++++ (100 ≤ Selectivity < 150)
IC50 [1]: < 50 nM
IC50 [2]: 500 to 5000 nM

Cc1ccc(C[C@H](NC(=O)CN(C)C(=O)/C=C/Cl)B(O)O)c(C)c1 [Compound No. 13, [(1R)-1-[[2-[[(E)-3-chloroprop-2-enoyl]-methyl-amino]acetyl]amino]-2-(2,4-dimethylphenyl)ethyl]boronic Acid]
Selectivity LMP7 vs Beta5 [1]: +++++ (Selectivity ≥ 150)
IC50 [1]: < 50 nM
IC50 [2]: 500 to 5000 nM

C=CC(=O)N(CC)CC(=O)N[C@@H](Cc1ccc(C)c(C)c1)B(O)O [Compound No. 14, [(1R)-2-(3,4-dimethylphenyl)-1-[[2-[ethyl(prop-2-enoyl)amino]acetyl]-amino]-ethyl]boronic Acid]
Selectivity LMP7 vs Beta5 [1]: +++++ (Selectivity ≥ 150)
IC50 [1]: 50 to 500 nM
IC50 [2]: > 5000 nM

C=CS(=O)(=O)N(C)CC(=O)N[C@@H](Cc1ccc(C)cc1C)B(O)O [Compound No. 15, [(1R)-2-(2,4-dimethylphenyl)-1-[[2-[methyl(vinylsulfonyl)amino]-acetyl]amino]ethyl]boronic Acid]
Selectivity LMP7 vs Beta5 [1]: +++ (70 ≤ 100)
IC50 [1]: < 50 nM
IC50 [2]: 500 to 5000 nM

C=CC(=O)N(C)CC(=O)N[C@@H](Cc1ccc(C)c(C)c1)B(O)O [Compound No. 16, [(1R)-2-(3,4-dimethylphenyl)-1-[[2-[methyl(prop-2-enoyl)amino]-acetyl]amino]ethyl]boronic Acid]
Selectivity LMP7 vs Beta5 [1]: +++++ (Selectivity ≥ 150)
IC50 [1]: < 50 nM
IC50 [2]: > 5000 nM

C=CC(=O)N(CC(=O)N[C@@H](Cc1ccc(C)c(C)c1)B(O)O)c1ccccc1 [Compound No. 17, [(1R)-2-(3,4-dimethylphenyl)-1-[[2-(N-prop-2-enoylanilino)acetyl]-amino]ethyl]boronic Acid]
Selectivity LMP7 vs Beta5 [1]: +++ (70 ≤ 100)
IC50 [1]: < 50 nM
IC50 [2]: 500 to 5000 nM

C/C=C\C(=O)N(CC)CC(=O)N[C@@H](Cc1ccc(C)cc1C)B(O)O [Compound No. 18, [(1R)-1-[[2-[[(Z)-but-2-enoyl]-ethyl-amino]acetyl]amino]-2-(2,4-dimethylphenyl)ethyl]boronic Acid]
Selectivity LMP7 vs Beta5 [1]: +++ (70 ≤ 100)
IC50 [1]: 50 to 500 nM
IC50 [2]: 500 to 5000 nM

CC#CC(=O)N(CC)CC(=O)N[C@@H](Cc1ccc(C)cc1C)B(O)O [Compound No. 19, [(1R)-1-[[2-[but-2-ynoyl(ethyl)amino]acetyl]amino]-2-(2,4-dimethylphenyl)ethyl]boronic Acid]
Selectivity LMP7 vs Beta5 [1]: +++ (70 ≤ 100)
IC50 [1]: < 50 nM
IC50 [2]: 500 to 5000 nM

CC#CC(=O)N(C)CC(=O)N[C@@H](Cc1ccc(C)cc1C)B(O)O [Compound No. 20, [(1R)-1-[[2-[but-2-ynoyl(methyl)amino]acetyl]amino]-2-(2,4-dimethylphenyl)ethyl]boronic Acid]
Selectivity LMP7 vs Beta5 [1]: + (Selectivity < 50)
IC50 [1]: < 50 nM
IC50 [2]: 500 to 5000 nM

C/C=C(/C)C(=O)N(CC)CC(=O)N[C@@H](Cc1ccc(C)cc1C)B(O)O [Compound No. 21, [(1R)-2-(2,4-dimethylphenyl)-1-[[2-[ethyl-[(Z)-2-methylbut-2-enoyl]amino]acetyl]amino]ethyl]boronic Acid]
Selectivity LMP7 vs Beta5 [1]: ++ (50 ≤ Selectivity < 70)
IC50 [1]: 50 to 500 nM
IC50 [2]: > 5000 nM

C/C=C(\C)C(=O)N(CC)CC(=O)N[C@@H](Cc1ccc(C)cc1C)B(O)O [Compound No. 22, [(1R)-2-(2,4-dimethylphenyl)-1-[[2-[ethyl-[(E)-2-methylbut-2-enoyl]-amino]acetyl]amino]ethyl]boronic Acid]
Selectivity LMP7 vs Beta5 [1]: ++ (50 ≤ Selectivity < 70)
IC50 [1]: 50 to 500 nM
IC50 [2]: > 5000 nM

C/C=C/C(=O)N(CC)CC(=O)N[C@@H](Cc1ccc(C)cc1C)B(O)O [Compound No. 23, [(1R)-1-[[2-[[(E)-but-2-enoyl]-ethyl-amino]acetyl]amino]-2-(2,4-dimethylphenyl)ethyl]boronic Acid]
Selectivity LMP7 vs Beta5 [1]: +++ (70 ≤ 100)
IC50 [1]: < 50 nM
IC50 [2]: 500 to 5000 nM

CCN(CC(=O)N[C@@H](Cc1ccc(C)cc1C)B(O)O)C(=O)C=C(C)C [Compound No. 24, [(1R)-2-(2,4-dimethylphenyl)-1-[[2-[ethyl(3-methylbut-2-enoyl)amino]-acetyl]amino]ethyl]boronic Acid]
Selectivity LMP7 vs Beta5 [1]: ++ (50 ≤ Selectivity < 70)
IC50 [1]: 50 to 500 nM
IC50 [2]: 500 to 5000 nM

C=CC(=O)N(CC)CC(=O)N[C@@H](Cc1ccc(Cl)cc1)B(O)O [Compound No. 25, [(1R)-2-(4-chlorophenyl)-1-[[2-[ethyl(prop-2-enoyl)amino]acetyl]-amino]ethyl]boronic Acid]
Selectivity LMP7 vs Beta5 [1]: + (Selectivity < 50)
IC50 [1]: 50 to 500 nM
IC50 [2]: 500 to 5000 nM

C=CC(=O)N(CC(=O)N[C@@H](Cc1ccc(C)cc1C)B(O)O)c1ccccc1 [Compound No. 26, [(1R)-2-(2,4-dimethylphenyl)-1-[[2-(N-prop-2-enoylanilino)acetyl]-amino]ethyl]boronic Acid]
Selectivity LMP7 vs Beta5 [1]: +++++ (Selectivity ≥ 150)
IC50 [1]: < 50 nM
IC50 [2]: 500 to 5000 nM
